How the values were obtained:
OXA-213 = test: Reactivity with recombinant enzyme, amperometric; type: biochemical; details: class D carbapenemase, protein; CF3 compound 2.4 mM, HMRZ-86 1.2 mM; 10 minutes at 37° C.
OXA-143 = test: Reactivity with recombinant enzyme, amperometric; type: biochemical; details: class D carbapenemase, protein; CF3 compound 2.4 mM, HMRZ-86 1.2 mM; 10 minutes at 37° C.
OXA-163 = details: class D carbapenemase, protein; CF3 compound 2.4 mM, HMRZ-86 1.2 mM; 10 minutes at 37° C.
VIM-5 = test: Reactivity with recombinant enzyme, amperometric; type: biochemical; details: class B metallo-beta-lactamase, protein; CF3 compound 2.4 mM, HMRZ-86 1.2 mM; 10 minutes at 37° C.
OXA-51 = test: Reactivity with recombinant enzyme, amperometric; type: biochemical; details: class D carbapenemase, protein; CF3 compound 2.4 mM, HMRZ-86 1.2 mM; 10 minutes at 37° C.
IMP-31 = test: Reactivity with recombinant enzyme, amperometric; type: biochemical; details: class B metallo-beta-lactamase, protein; CF3 compound 2.4 mM, HMRZ-86 1.2 mM; 10 minutes at 37° C.
[1] = NMR stability study in relation to a dimethylformamide (DMF) reference; type: physicochemical; details: for degradation: DMF reference
Procedure: More particularly, when the degradation is determined by means of NMR measurements, a first sample comprising the beta-lactamase substrate compound according to the present disclosure and a second sample comprising the reference, e.g. DMF, are heated or cooled to a predefined temperature, after which the NMR measurement is performed on both samples (measurement at time=0). The same measurement is repeated on the samples after a predefined time (time=x), while their temperature is kept constant at the predefined temperature from time=0 to time=x. The difference of the integration of NMR measurement signals of both samples is determined by comparing between time=0 and time=x, thereby allowing to define the degree (percentage) of degradation of the beta-lactamase substrate compound at time=x.
(§1) The stability of the beta-lactamase substrate compounds over time at different temperatures was tested the reference HMRZ-86 of example 1 (at 1.2 mM) and the beta-lactamase substrate compound with R being 2-nitro-4-cyano of Example 1 (at 2.4 mM).
The stability was tested by a NMR stability study. The degradation was measured by measuring the evolution of the integration of NMR measurement signals of the molecule in relation to a dimethylformamide (DMF) reference. The stability of the beta-lactamase substrate compound is expressed by the percentage of degradation in function of time.
The stability of all 3 beta-lactamase substrate compounds (R being 4-cyanophenyl, group β being H, CH3 and CF3, respectively), as well as the beta-lactamase having the same group R and a group β according to formula II was tested at 20° C. in DMF as reference.

CTX-M-8 = test: Reactivity with recombinant enzyme, amperometric; type: biochemical; details: class A ESBL, protein; CF3 compound 2.4 mM, HMRZ-86 1.2 mM; 10 minutes at 37° C.
OXA-48 = test: Reactivity with recombinant enzyme, amperometric; type: biochemical; details: class D carbapenemase, protein; CF3 compound 2.4 mM, HMRZ-86 1.2 mM; 10 minutes at 37° C.
IMP-11 = test: Reactivity with recombinant enzyme, amperometric; type: biochemical; details: class B metallo-beta-lactamase, protein; CF3 compound 2.4 mM, HMRZ-86 1.2 mM; 10 minutes at 37° C.
OXA-40 = test: Reactivity with recombinant enzyme, amperometric; type: biochemical; details: class D carbapenemase, protein; CF3 compound 2.4 mM, HMRZ-86 1.2 mM; 10 minutes at 37° C.
NDM-1 = NDM-1 (Klebsiella pneumoniae, UniProt C7C422); test: Reactivity with recombinant enzyme, amperometric; type: biochemical; details: class B metallo-beta-lactamase, protein; CF3 compound 2.4 mM, HMRZ-86 1.2 mM; 10 minutes at 37° C.
CTX-M-2 = CTX-M-2 (Salmonella typhimurium, UniProt P74841); test: Reactivity with recombinant enzyme, amperometric; type: biochemical; details: class A ESBL, protein; CF3 compound 2.4 mM, HMRZ-86 1.2 mM; 10 minutes at 37° C.
KPC-31 = KPC-31 (Klebsiella pneumoniae, UniProt Q9F663, D178Y/H272Y); test: Reactivity with recombinant enzyme, amperometric; type: biochemical; details: class A carbapenemase, protein, CF3 compound 2.4 mM, HMRZ-86 1.2 mM, 10 minutes at 37° C.
OXA-58 = test: Reactivity with recombinant enzyme, amperometric; type: biochemical; details: class D carbapenemase, protein; CF3 compound 2.4 mM, HMRZ-86 1.2 mM; 10 minutes at 37° C.
IMP-4 = test: Reactivity with recombinant enzyme, amperometric; type: biochemical; details: class B metallo-beta-lactamase, protein; CF3 compound 2.4 mM, HMRZ-86 1.2 mM; 10 minutes at 37° C.
IMP-18 = test: Reactivity with recombinant enzyme, amperometric; type: biochemical; details: class B metallo-beta-lactamase, protein; CF3 compound 2.4 mM, HMRZ-86 1.2 mM; 10 minutes at 37° C.
CTX-M-14 = CTX-M-14 (Escherichia coli, UniProt Q9L5C7); test: Reactivity with recombinant enzyme, amperometric; type: biochemical; details: class A ESBL, protein; CF3 compound 2.4 mM, HMRZ-86 1.2 mM; 10 minutes at 37° C.
OXA-23 = OXA-23 (Acinetobacter baumannii, UniProt Q9L4P2); test: Reactivity with recombinant enzyme, amperometric; type: biochemical; details: class D carbapenemase, protein; CF3 compound 2.4 mM, HMRZ-86 1.2 mM; 10 minutes at 37° C.
KPC-33 = KPC-33 (Klebsiella pneumoniae, UniProt Q9F663, D178Y); test: Reactivity with recombinant enzyme, amperometric; type: biochemical; details: class A carbapenemase, protein; CF3 compound 2.4 mM, HMRZ-86 1.2 mM; 10 minutes at 37° C.
KPC-3 = KPC-3 (Klebsiella pneumoniae, UniProt Q9F663, H272Y); test: Reactivity with recombinant enzyme, amperometric; type: biochemical; details: class A carbapenemase, protein; CF3 compound 2.4 mM, HMRZ-86 1.2 mM; 10 minutes at 37° C.
IMP-22 = test: Reactivity with recombinant enzyme, amperometric; type: biochemical; details: class B metallo-beta-lactamase, protein; CF3 compound 2.4 mM, HMRZ-86 1.2 mM; 10 minutes at 37° C.
VIM-11 = test: Reactivity with recombinant enzyme, amperometric; type: biochemical; details: class B metallo-beta-lactamase, protein; CF3 compound 2.4 mM, HMRZ-86 1.2 mM; 10 minutes at 37° C.
CTX-M-15 = CTX-M-15 (Escherichia coli, UniProt Q9EXV5); test: Reactivity with recombinant enzyme, amperometric; type: biochemical; details: class A ESBL, protein; CF3 compound 2.4 mM, HMRZ-86 1.2 mM; 10 minutes at 37° C.
[2] = NMR stability study in relation to a 22 mM succinate buffer reference; type: physicochemical
Procedure: as §1
The stability of both beta-lactamase substrate compounds was also tested in relation to a 22 mM succinate buffer reference. […] Contrary to the dimethylformamide (DMF) reference, the degradation in relation to the succinate buffer was similar for both substrate compounds, with the first degradation starting after 2 weeks at both temperatures.

N#Cc1ccc(C=CC2=C(C(=O)O)N3C(=O)C(NC(=O)C(F)(F)F)C3SC2)cc1 (stereo not shown) [CF3]
reactivity (detection) (OXA-213): Detected
reactivity (detection) (OXA-143): Detected
reactivity (detection) (OXA-163): Detected
reactivity (detection) (VIM-5): Detected
reactivity (detection) (OXA-51): Detected
reactivity (detection) (IMP-31): Detected
time of first signs of degradation [1]: 1 weeks
reactivity (detection) (CTX-M-8): Detected
reactivity (detection) (OXA-48): Detected
reactivity (detection) (IMP-11): Detected
reactivity (detection) (OXA-40): Detected
reactivity (detection) (NDM-1): Detected
reactivity (detection) (CTX-M-2): Detected
reactivity (detection) (KPC-31; listed as CF3/4-cyanophenyl): not detected
reactivity (detection) (KPC-31; listed as CF3/4-cyanostyryl): Not detected
reactivity (detection) (OXA-58): Detected
reactivity (detection) (IMP-4): Detected
reactivity (detection) (IMP-18): Detected
reactivity (detection) (CTX-M-14): Detected
reactivity (detection) (OXA-23): Detected
reactivity (detection) (KPC-33): Detected
reactivity (detection) (KPC-3): Detected
reactivity (detection) (IMP-22): Detected
reactivity (detection) (VIM-11): Detected
reactivity (detection) (CTX-M-15): Detected

CC(C)(ON=C(C(=O)N[C@@H]1C(=O)N2C(C(=O)O)=C(C=Cc3ccc([N+](=O)[O-])cc3[N+](=O)[O-])CS[C@H]12)c1csc(N)n1)C(=O)O.O=C(O)C(F)(F)F [HMRZ-86, reference compound]
reactivity (detection) (OXA-213): Not detected
reactivity (detection) (OXA-143): Detected
reactivity (detection) (OXA-163): Detected
reactivity (detection) (VIM-5): Detected
reactivity (detection) (OXA-51): Not detected
reactivity (detection) (IMP-31): Detected
degradation ([1]; 4° C., after 1 day): over 50%
degradation ([1]; 20° C., after 1 week): ~60%
degradation ([1]; 20° C., after 18 weeks): over 90%
degradation ([1]; 20° C., after 1 day): ~60%
degradation over time ([1]; temperatures between 4° C. and 20° C.): significant degradation over time
reactivity (detection) (CTX-M-8): Detected
reactivity (detection) (OXA-48): Detected
reactivity (detection) (IMP-11): Detected
reactivity (detection) (OXA-40): Not detected
reactivity (detection) (NDM-1): Detected
reactivity (detection) (CTX-M-2): Detected
reactivity (detection) (KPC-31): Detected
time at which the first degradation starts ([2]; 4° C.): 2 weeks
time at which the first degradation starts ([2]; 20° C.): 2 weeks
reactivity (detection) (OXA-58): Not detected
reactivity (detection) (IMP-4): Detected
reactivity (detection) (IMP-18): Detected
reactivity (detection) (CTX-M-14): Detected
reactivity (detection) (OXA-23): Not detected
reactivity (detection) (KPC-33): Detected
reactivity (detection) (KPC-3): Detected
reactivity (detection) (IMP-22): Detected
reactivity (detection) (VIM-11): Detected
reactivity (detection) (CTX-M-15): Detected
